Broadly, the IC50 is the concentration needed to halve the response being measured.

Each structure is given as a SMILES string.

Assay [1] addresses Brd4 BD1 (Homo sapiens (Human), UniProt O60885). Nature of the assay: HTRF evaluation of bromodomain inhibitors, Brd4 BD1. It is filed as binding. The settings on record: H4ac4 peptide 50 nM, 4 h at 4° C. How it is done: (§1) HTRF reagents and buffers were purchased from Cisbio Bioassays. The assay used a terbium (Ill) cryptate donor reagent conjugated to an anti-GST antibody (MAb anti-GST-Tb; GSTTLA), a streptavidin-conjugated acceptor reagent (streptavidin-d2) and Cisbio proprietary buffers (EPlgeneous Binding Domain Diluent and Detection buffer, respectively). GST-tagged bromodomains (BDs) were expressed in E. coli and purified using standard procedures. Incubation of GST-tagged BDs with biotinylated acetylated H4 peptide (H4K5acK8acK12acK16ac, here named H4ac4) brings the donor and acceptor into close proximity and allows for a FRET reaction. GST-tagged proteins in 25 mM Hepes pH 7.5, 150 mM NaCl, 0.5 mM DTT were assayed at a final concentration of 5 nM. Biotinylated H4ac4 peptides were used at a final concentration of 50, 600 nM in assays involving Brd4 BD1, Brd4 BD2, respectively. The antibody-conjugated donor was used at 0.5 nM and the streptavidin-conjugated acceptor was used at ⅛ of the H4ac4 peptide concentration. Inhibitors were tested by performing an eleven-point dilution series with a maximal final concentration of […]. These concentrations allowed a fixed DMSO concentration at 0.2%, critical for a Z′ factor ≥0.8. Components were incubated at 4° C. for 4 h (BD1) or for 24 h (BD2). Experiments were performed in 384-well white plates (Greiner ref. 781080) and analyzed in a ClarioStar plate reader (BMG LABTECH, excitation at 330 nm and emission at 620 and 665 nm, corresponding to the donor and acceptor emission peaks, respectively; the 665/620 ratio is used to calculate the specific HTRF signal) with an integration delay of 60 μs and an integration time of 400 μs.
Background: Time-resolved FRET reads energy transfer from a long-lived donor to a nearby acceptor.

Assay [2] has as its target Brd4 BD2 (Homo sapiens (Human), UniProt O60885). Description: HTRF evaluation of bromodomain inhibitors, Brd4 BD2. Conditions: for IC50: HTRF, H4ac4 peptide 600 nM, 24 h at 4° C.; for Selectivity BD2/BD1: ratio of the BD1 and BD2 IC50. The format is binding. The protocol:
as §1

On to `CC[C@H]1[C@@H](C)[C@H](n2cc(-c3ccc(OC)cc3)nn2)c2cc(C(=O)OC)ccc2N1C(C)=O` [XM, Methyl (2S,3R,4S)-1-acetyl-2-ethyl-4-(4-(4-methoxyphenyl)-1H-1,2,3-triazol-1-yl)-3-methyl-1,2,3,4-tetrahydroquinoline-6-carboxylate], for which half-maximal inhibition in assay [1] (IC50) required 2980 nM. In assay [2], half-maximal inhibition (IC50) was put at 563 nM and the “Selectivity BD2/BD1” value is listed as 5.3.
In the same order, the values of `C#CCOCCOCCOCCOCCOCc1cn([C@@H]2c3cc(C(=O)OC)ccc3N(C(C)=O)[C@@H](CC)[C@H]2C)nn1` [XS, Methyl-(2S,3R,4S)-4-(4-(2,5,8,11,14-pentaoxaheptadec-16-yn-1-yl)-1H-1,2,3-triazol-1-yl)-1-acetyl-2-ethyl-3-methyl-1,2,3,4-tetrahydroquinoline-6-carboxylate] are roughly 30000 nM, 1300 nM and 23.1.
For `CC[C@@H]1[C@H](C)[C@@H](NC(=O)OC(C)C)c2cc(C(=O)OC)ccc2N1C(C)=O` [ent-XJ], the IC50 in assay [1] is greater than 100000 nM; in assay [2], 17700 nM.
Turning to `CC[C@H]1[C@@H](C)[C@H](n2cc(COCCOCCOCc3cn(C4c5cc(C(=O)OC)ccc5N(C(C)=O)[C@@H](CC)[C@H]4C)nn3)nn2)c2cc(C(=O)OC)ccc2N1C(C)=O` (stereo partly drawn) [XV, Dimethyl-4,4′-((((oxybis(ethane-2,1-diyl))bis(oxy))bis(methylene))bis(1H-1,2,3-triazole-4,1-diyl))(2S,2'S,3R,3′R,4S,4'S)-bis(1-acetyl-2-ethyl-3-methyl-1,2,3,4-tetrahydroquinoline-6-carboxylate)], the IC50 in assay [1] was found to be 1670 nM. Besides, in assay [2], the IC50 was 2430 nM and the “Selectivity BD2/BD1” value was 0.7.
In the case of `CC[C@@H]1[C@H](C)[C@@H](n2cc(-c3ccccc3)nn2)c2cc(C(=O)OC)ccc2N1C(C)=O` (single isomer, unassigned) [ent-28], the figures for the IC50 in assay [1] and in assay [2] were greater than 100000 nM and 51400 nM, respectively.
On to `C=CCCCC(=O)Nc1ccc(-c2ccc3c(c2)[C@H](n2cc(-c4ccccc4)nn2)[C@@H](C)[C@@H](CC)N3C(C)=O)cc1` [ent-XD], for which the IC50 in assay [1] stood at 2300 nM. Further, in assay [2], inhibition was half-maximal at 677 nM (IC50) and the “Selectivity BD2/BD1” value came to 3.4.
In the same order, the values of `CC[C@H]1[C@@H](C)[C@H](n2cc(C3CCCCC3)nn2)c2cc(C(=O)OC)ccc2N1C(C)=O` [XO, Methyl-(2S,3R,4S)-1-acetyl-4-(4-cyclohexyl-1H-1,2,3-triazol-1-yl)-2-ethyl-3-methyl-1,2,3,4-tetrahydroquinoline-6-carboxylate] are 5520 nM, 860 nM and 6.4.
In the case of `C#CCOCCOCCOCCOCc1cn([C@@H]2c3cc(C(=O)OC)ccc3N(C(C)=O)[C@@H](CC)[C@H]2C)nn1` [XR, Methyl-(2S,3R,4S)-4-(4-(2,5,8,11-tetraoxatetradec-13-yn-1-yl)-1H-1,2,3-triazol-1-yl)-1-acetyl-2-ethyl-3-methyl-1,2,3,4-tetrahydroquinoline-6-carboxylate], the IC50 in assay [1] was greater than 100000 nM; in assay [2], 2360 nM.
In the same order, the values of `CC[C@H]1[C@@H](C)[C@H](n2cc(COCCOCCOCCOCCOCCOCC#Cc3cccc4c3CN(C3CCC(=O)NC3=O)C4=O)nn2)c2cc(C(=O)OC)ccc2N1C(C)=O` (stereo partly drawn) [YG, Methyl-(2S,3R,4S)-1-acetyl-4-(4-(20-(2-(2,6-dioxopiperidin-3-yl)-1-oxoisoindolin-4-yl)-2,5,8,11,14,17-hexaoxaicos-19-yn-1-yl)-1H-1,2,3-triazol-1-yl)-2-ethyl-3-methyl-1,2,3,4-tetrahydroquinoline-6-carboxylate] are greater than 20000 nM and 1360 nM.
With `C=CCCCC(=O)Nc1ccc(-c2ccc3c(c2)[C@@H](NC(=O)OC(C)C)[C@H](C)[C@H](CC)N3C(C)=O)cc1` [XI, Isopropyl-((2S,3S,4S)-1-acetyl-2-ethyl-6-(4-(hex-5-enamido)phenyl)-3-methyl-1,2,3,4-tetrahydroquinolin-4-yl)carbamate], in assay [1], the IC50 came to 2680 nM. In addition, in assay [2], the IC50 was found to be 2170 nM and the “Selectivity BD2/BD1” value was 1.2.
In the same order, the values of `C=CCCCC(=O)Nc1ccc(-c2ccc3c(c2)[C@@H](Nc2ncc(Cl)cn2)[C@H](C)[C@H](CC)N3C(C)=O)cc1` [XK, N-(4-((2S,3S,4S)-1-acetyl-4-((5-chloropyrimidin-2-yl)amino)-2-ethyl-3-methyl-1,2,3,4-tetrahydroquinolin-6-yl)phenyl)hex-5-enamide] are 3140 nM, 1330 nM and 2.4.
On the same counts, the results for `CC[C@H]1[C@@H](C)[C@H](N=[N+]=[N-])c2cc(C(F)(F)F)ccc2N1C(C)=O` [YB, 1-((2S,3R,4S)-4-azido-2-ethyl-3-methyl-6-(trifluoromethyl)-3,4-dihydroquinolin-1(2H)-yl)ethan-1-one] are 67000 nM, 7570 nM and 8.8.
For the molecule `C=CCCCC(=O)Nc1ccc(-c2ccc3c(c2)[C@H](n2cc(CCCCC)nn2)[C@@H](C)[C@@H](CC)N3C(C)=O)cc1` [ent-XE], the IC50 in assay [1] and in assay [2] was greater than 100000 nM throughout.
Consider `CCCCCc1cn([C@@H]2c3cc(C(=O)OC)ccc3N(C(C)=O)[C@@H](CC)[C@H]2C)nn1` [XF, Methyl (2S,3R,4S)-1-acetyl-2-ethyl-3-methyl-4-(4-pentyl-1H-1,2,3-triazol-1-yl)-1,2,3,4-tetrahydroquinoline-6-carboxylate], for which the IC50 in assay [1] was 30000 nM; in assay [2], 1930 nM. For the same molecule, the “Selectivity BD2/BD1” value in assay [2] came out at 15.6.
On the same counts, the results for `C#CCOCCOCCOCCOCCOCCOCc1cn([C@@H]2c3cc(C(=O)OC)ccc3N(C(C)=O)[C@@H](CC)[C@H]2C)nn1` [XT, Methyl-(2S,3R,4S)-4-(4-(2,5,8,11,14,17-hexaoxaicos-19-yn-1-yl)-1H-1,2,3-triazol-1-yl)-1-acetyl-2-ethyl-3-methyl-1,2,3,4-tetrahydroquinoline-6-carboxylate] are roughly 35000 nM, 2040 nM and 17.2.
In the same order, the values of `CC[C@H]1[C@@H](C)[C@H](Nc2ncc(Cl)cn2)c2cc(C(=O)OC)ccc2N1C(C)=O` [XL, Methyl (2S,3S,4S)-1-acetyl-4-((5-chloropyrimidin-2-yl)amino)-2-ethyl-3-methyl-1,2,3,4-tetrahydroquinoline-6-carboxylate] are 10100 nM, 1130 nM and 9.0.
`CC[C@H]1[C@H](C)[C@@H](n2cc(-c3ccccc3)nn2)c2cc(C(=O)OC)ccc2N1C(C)=O` [Compound 31, Methyl-(2S,3S,4R)-1-acetyl-2-ethyl-3-methyl-4-(4-phenyl-1H-1,2,3-triazol-1-yl)-1,2,3,4-tetrahydroquinoline-6-carboxylate]: the IC50 is greater than 200000 nM in assay [1] and 14900 nM in assay [2].
In assay [1], `C=CCCCC(=O)Nc1ccc(-c2ccc3c(c2)[C@H](Nc2ncc(Cl)cn2)[C@@H](C)[C@@H](CC)N3C(C)=O)cc1` [ent-XK] had an IC50 of 6090 nM. In assay [2], it took 2020 nM to reach half-maximal inhibition (IC50) and the “Selectivity BD2/BD1” value came out at 3.0.
For `CC[C@H]1[C@@H](C)[C@H](n2nnc3c2CCC2C(CO)C2CC3)c2cc(C(=O)OC)ccc2N1C(C)=O` (stereo partly drawn) [YI, Methyl-(2S,3R,4S)-1-acetyl-2-ethyl-4-(6-(hydroxymethyl)-5,5a,6,6a,7,8-hexahydrocyclopropa[5,6]cycloocta[1,2-d][1,2,3]triazol-1(4H)-yl)-3-methyl-1,2,3,4-tetrahydroquinoline-6-carboxylate], the IC50 in assay [1] worked out at 33600 nM. Moreover, in assay [2], the IC50 was found to be 798 nM and the “Selectivity BD2/BD1” value was found to be 42.1.
With `CC[C@H]1[C@@H](C)[C@H](n2cc(COCCOCCOCCOCc3cn(C4c5cc(C(=O)OC)ccc5N(C(C)=O)[C@@H](CC)[C@H]4C)nn3)nn2)c2cc(C(=O)OC)ccc2N1C(C)=O` (stereo partly drawn) [XW, Dimethyl-4,4′-((2,5,8,11-tetraoxadodecane-1,12-diyl)bis(1H-1,2,3-triazole-4,1-diyl))(2S,2′S,3R,3′R,4S,4′S)-bis(1-acetyl-2-ethyl-3-methyl-1,2,3,4-tetrahydroquinoline-6-carboxylate)], the IC50 was found to be 1850 nM in assay [1] and 95.4 nM in assay [2]. Further, the “Selectivity BD2/BD1” value in assay [2] turned out to be 19.4.
In the same order, the values of `C#CCOCCOCc1cn([C@@H]2c3cc(C(=O)OC)ccc3N(C(C)=O)[C@@H](CC)[C@H]2C)nn1` [XP, Methyl-(2S,3R,4S)-1-acetyl-2-ethyl-3-methyl-4-(4-((2-(prop-2-yn-1-yloxy)ethoxy)methyl)-1H-1,2,3-triazol-1-yl)-1,2,3,4-tetrahydroquinoline-6-carboxylate] are roughly 30000 nM, 2260 nM and 13.2.

The record behind these values is US20240287025A1, “TETRAHYDROQUINOLINE (THQ) COUMPOUNDS” (Centre National de la Recherche Scientifique, priority 2021, published 2024).
